The record followed here is article PMC3508689 (Biochemistry, 2011).

The experiment addresses T1, human PPM1D catalytic domain (residues 1–420) (Homo sapiens, UniProt O15297).
T1 sequence (O15297 1-420): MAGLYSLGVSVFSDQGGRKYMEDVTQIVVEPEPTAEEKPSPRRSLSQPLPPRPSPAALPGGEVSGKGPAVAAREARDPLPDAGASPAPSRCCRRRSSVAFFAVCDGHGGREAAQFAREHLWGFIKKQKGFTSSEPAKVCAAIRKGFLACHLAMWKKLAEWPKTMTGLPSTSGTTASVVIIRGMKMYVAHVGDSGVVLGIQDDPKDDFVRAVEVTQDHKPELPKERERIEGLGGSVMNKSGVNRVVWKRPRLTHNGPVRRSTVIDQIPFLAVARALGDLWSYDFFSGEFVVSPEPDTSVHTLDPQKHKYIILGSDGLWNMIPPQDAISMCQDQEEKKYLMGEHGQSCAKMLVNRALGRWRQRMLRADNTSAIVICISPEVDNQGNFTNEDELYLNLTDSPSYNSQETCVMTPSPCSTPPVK
The format is biochemical. Conditions: cyclic peptide 25 μM, ATM substrate peptide 30 μM.

In the case of “cyclo(F-F2Pab-I-pY-DDC)-amide [peptide 44]”, the “inhibitory activity against PPM1D (in words)” value is given as “did not show inhibitory activity”.

Regarding “cyclo[(D-Asp)-(D-Asp)-(D-pY)-(D-I)-(D-pS)-(D-F)-C]-amide [peptide 47]”, the “inhibitory activity against PPM1D (in words)” value is given as “no significant inhibitory activity”.
